# Structures can show the parent of a compound that is named as a salt.
# Target: T1, CCK Receptor (Pancreas) (Rattus norvegicus, UniProt P30551)
# T1 construct: The whole pancreas was dissected free of fat tissue and was homogenized; from tissue; host or cells: rat pancreas membrane homogenate
# T1 sequence (P30551 1-444): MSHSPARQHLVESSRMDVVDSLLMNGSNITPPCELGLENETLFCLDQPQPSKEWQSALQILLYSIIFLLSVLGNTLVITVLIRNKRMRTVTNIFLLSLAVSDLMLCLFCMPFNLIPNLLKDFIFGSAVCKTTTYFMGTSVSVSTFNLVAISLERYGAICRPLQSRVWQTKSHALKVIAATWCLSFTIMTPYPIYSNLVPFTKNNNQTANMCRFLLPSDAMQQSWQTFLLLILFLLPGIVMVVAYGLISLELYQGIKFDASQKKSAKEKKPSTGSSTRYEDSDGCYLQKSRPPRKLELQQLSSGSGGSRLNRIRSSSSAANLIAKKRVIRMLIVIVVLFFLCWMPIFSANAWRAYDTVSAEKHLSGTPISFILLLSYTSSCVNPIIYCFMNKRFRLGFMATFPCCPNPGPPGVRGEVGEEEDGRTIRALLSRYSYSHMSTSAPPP
# Test: CCK Receptor Binding (Pancreas), inhibition of specific 125I-CCK-8 binding
# Parameters: species or system Sprague-Dawley rats
# Settings: rat whole pancreas membranes; 50 pM 125I-CCK-8; 25°C for 2 hours
# Experimental: CCK-8 sulphated was radiolabelled with ¹²⁵I-Bolton Hunter reagent (2000 Ci/mmole). Receptor binding was performed according to Chang and Lotti (Proc. Natl. Acad. Sci. 83, 4923-4926, 1986) with minor modifications.
# Male Sprague-Dawley rats (150-200g) were sacrificed by decapitation. The whole pancreas was dissected free of fat tissue and was homogenized in 25 volumes of ice-cold 10 mM N-2-hydroxyethyl-piperazine-N′-2-ethane sulphonic acid (HEPES) buffer with 0.1% soya bean trypsin inhibitor (pH 7.4 at 25°C) with a Kinematica Polytron. The homogenates were centrifuged at 47,800 g for 10 min. Pellets were resuspended in 10 volumes of binding assay buffer (20mM (HEPES)), 1mM ethylene glycol-bis-(β-aminoethylether-N,N′-tetraacetic acid) (EGTA), 5mM MgCl₂, 150 mM NaCl, bacitracin 0.25 mg/ml, soya bean trypsin inhibitor 0.1 mg/ml, and bovine serum albumin 2 mg/ml pH 6.5 at 25°C) using a Teflon (trademark) homogenizer, 15 strokes at 500 rpm. The homogenate was further diluted in binding assay buffer to give a final concentration of 0.5 mg original wet weight/1 ml buffer. […] All assays were run in duplicate. The reaction mixtures were incubated at 25°C for 2 hours and the reaction terminated by rapid filtration (Brandell 24 well cell harvester) over Whatman GF/C filters, washing 3 x 4 mls with ice-cold 100 Mm NaCl. The radioactivity on the filters was counted with a LKB gamma counter.
# Drug displacement studies were performed with at least 10 concentrations of compounds of Formula I and the IC₅₀ values were determined by regression analysis IC₅₀ refers to the concentration of the compound required to inhibit 50% of specific binding of ¹²⁵I-CCK-8.
row,SMILES,IC50
1,"CCCN1C(=O)C(NC(=O)Nc2cccc(NC(C)=O)c2)N=C(N2CCN(C)CC2)c2ccccc21 (racemic) [Example 39, N-[3(R,S)-2,3-Dihydro-5-(4-methylpiperazin-1-yl)-2-oxo-1-propyl-1H-1,4-benzodiazepin-3-yl]-N#MIN#-[3-(acetylamino)phenyl] urea]",> 3000 nM
2,"Cc1cccc(NC(=O)NC2N=C(N3CCNCC3)c3ccccc3N(C)C2=O)c1 (racemic) [Example 9, N-[3(R,S)-2,3-Dihydro-1-methyl-2-oxo-5-(piperazin-1-yl)-1H-1,4-benzodiazepin-3-yl]-N′-[3-methylphenyl] urea]",> 3000 nM
3,"Cc1cccc(NC(=O)NC2N=C(N3CCN(C)CC3)c3ccccc3N(C)C2=O)c1 (racemic) [Example 4, N-[3(R,S)-2,3-Dihydro-1-methyl-5-(4-methylpiperazin-1-yl-2-oxo-1H-1,4-benzodiazepin-3-yl] N′-[3-methylphenyl]urea]",4120 nM
4,"CCCN1C(=O)C(NC(=O)Nc2cccc(C)c2)N=C(N2CCN(CC)CC2)c2ccccc21 (racemic) [Example 37, N-[3(R,S)-2,3-Dihydro-5-(4-ethylpiperazin-1-yl)-2-oxo-1-propyl-1H-1,4-benzodiazepin-3-yl]-N#MIN#-[3-methylphenyl] urea]",3730 nM
5,"CCc1cccc(NC(=O)NC2N=C(N3CCN(C)CC3)c3ccccc3N(CC(C)C)C2=O)c1 (single isomer, unassigned; (+)) [Example 27, (+)-N-[2,3-Dihydro-5-(4-methylpiperazin-1-yl)-1-(2-methylpropyl)-2-oxo-1H-1,4-benzodiazepin-3-yl]-N#MIN#-[3-ethylphenyl] urea]",3080 nM
6,"CN1CCN(C2=NC(NC(=O)Nc3ccccc3)C(=O)N(C)c3ccccc32)CC1 (racemic) [Example 31, N-[3(R,S)-2,3-Dihydro-1-methyl-2-oxo-5-(4-methylpiperazin-1-yl)-1H-1,4-benzodiazepin-3-yl]-N′-phenyl urea]",3450 nM
7,"CCc1cccc(NC(=O)NC2N=C(N3CCCCC3)c3ccccc3N(C)C2=O)c1 (racemic) [Example 19, N-[3(R,S)-2,3-Dihydro-1-methyl-2-oxo-5-(piperidin-1-yl)-1H-1,4-benzodiazepin-3-yl]-N′-[3-ethylphenyl] urea]",25 nM

# Next, values leading:
row,IC50,SMILES
1,28.2 nM,"CN1C(=O)C(NC(=O)Nc2ccc3c(c2)CCC3)N=C(N2CCCCCC2)c2ccccc21 (racemic) [Example 46, N-[3(R,S)-2,3-Dihydro-5-(homopiperidin-1-yl)-1-methyl-2-oxo-1H-1,4-benzodiazepin-3-yl]-N′-[5-indanyl] urea]"
2,3.59 nM,"CCN1C(=O)C(NC(=O)Nc2cccc(C)c2)N=C(N2CCCCCC2)c2ccccc21 (racemic) [Example 64, N-[3(R,S)-2,3-Dihydro-1-ethyl-5-(homopiperidin-1-yl)-2-oxo-1H-1,4-benzodiazepin-3-yl]-N′-[3-methylphenyl] urea]"
3,2430 nM,"CN1C(=O)C(NC(=O)Nc2ccc3c(c2)CCC3)N=C(N2CCCCCC2)c2ccccc21 (single isomer, unassigned; (-)) [Example 58, (-)-N-[2,3-Dihydro-5-(homopiperidin-1-yl)-1-methyl-2-oxo-1H-1,4-benzodiazepin-3-yl]-N′-[5-indanyl] urea hydrochloride]"
4,815 nM,"CN1C(=O)C(NC(=O)Nc2ccc(C(C)(C)C)cc2)N=C(N2CCCCCC2)c2ccccc21 (racemic) [Example 50, N-[3(R,S)-2,3-Dihydro-5-(homopiperidin-1-yl)-1-methyl-2-oxo-1H-1,4-benzodiazepin-3-yl]-N′-[4-t-butylphenyl] urea]"
5,711 nM,"CCCN1C(=O)C(NC(=O)Nc2cccc(C)c2)N=C(N2CCN(C)CC2)c2ccc(C)cc21 (racemic) [Example 42, N-[3(R,S)-2,3-Dihydro-8-methyl-5-(4-methylpiperazin-1-yl)-2-oxo-1-propyl-1H-1,4-benzodiazepin-3-yl]-N′-[3-methylphenyl] urea]"

# — patent publication EP0539170A1, “Benzodiazepine derivatives and their use as antagonists of cholecystokinin and/or gastrin receptors” (priority 1991, dated 1993)
